Assay [1] concerns naïve CD4^+CD62L^+ T cells (responder) with nTreg cells. Kind of assay: In vitro nTreg suppression assay. It counts as cell-based, mouse. Also on record: CD4+ T cell activation and proliferation: dose or concentration left out as unconfirmed. The text has this: Spleens and lymph nodes were harvested from 10 FoxP3-GFP mice on a B6 background. […] Naïve CD4^+ T cells were purified from the rest of the cells as described above. A total of 6.2×10^8 naïve CD4^+ T cells were collected. 5×10^7 cells were set aside to be effector T cells in the experiment. The remainder of the cells (5.7×10^8) were stained with anti-CD4 PE-Cy7, and the PE-Cy7^+/GFP^+ cells were sorted via MoFlo. A total of 4×10^6 nTreg (CD4^+/FoxP3^+) cells were collected from the MoFlo at 99% purity. […] The culture wells also received various ratios of nTreg cells: B7-H4-Ig. nTreg cells (CD4^+/CD62L^+/FoxP3-GFP^+) were isolated from B6/FoxP3-GFP mice by MoFLo sorting. Naïve GFP^− T cells CD4^+/CD62L^+/FoxP3-GFP^−) were used as responder cells. Increasing numbers of the nTreg cells were added to constant numbers of naïve CD4^+CD62L^+ T cells, irradiated splenocytic APCs, and anti-CD3 (FIG. 31). […]

The test system of the next assay is DBA/1J mice. Kind of assay: Collagen-induced arthritis (CIA) prophylactic model, arthritis score. The settings on record: 0.5 mg (20 mg/kg) IP from day of CII immunization, 2 times each week up to 6 weeks; days 33 and beyond; vs vehicle (FIG. 3). The format is in vivo, mouse. The text has this:
CIA is a well-characterized mouse model for human RA, in which injection of collagen II (CII) into DBA/1J mice induces swelling and progressive inflammation in joints resulting in arthritis. […] B7-H4-Ig treatment continued 2 times each week, up to 6 weeks. On day 21, mice were rechallenged with CII emulsified in IFA. FIG. 2 outlines a brief experimental design. Day 40 was the last B7-H4-Ig treatment.

Assay [2] has as its system mRNAs associated with Th17 cells, Tregs, autoimmune disorders and inflammation. Nature of the assay: Quantitative RT-PCR of mouse naïve T cells under Th17 differentiation cocktail. It counts as cell-based. To be noted: 1 μg/mL, vs isotype control (Table 13, FIG. 54). Here is the method:
CD4^+CD62L^+ naïve T cells were isolated from BALB/c mice as in the above examples, and activated by anti-CD3 and anti-CD28 bound beads in the presence of Th17 differntiation cocktail (TGF-β1 (10 ng/mL), IL-6 (50 ng/mL), IL-23 (4 ng/mL), anti-IL-4 (10 μg/mL), anti-IFN-γ (5 μg/mL) and anti-IL-2 (5 μg/mL)). Cells were incubated with either B7-H4-Ig (two different lots—#22 and #23—at 1 μg/mL) or isotype control. RNA was isolated from the cells and used for quantitative RT-PCR to test the expression levels of a large number of mRNAs associated with Th17 cells, Tregs, autoimmune disorders and inflammation (SA Biosciences mouse Th17 panel).

In a further assay the test system is Human T cells. Kind of assay: Quantitative RT-PCR of human T cells under Th17 differentiation cocktail. It counts as cell-based. To be noted: 1 μg/mL, vs Synagis (FIG. 55). The protocol: Human T cells were activated by anti-CD3 and anti-CD28 bound beads in the presence of Th17 differntiation cocktail (TGF-β1 (10 ng/mL), IL-6 (50 ng/mL), IL-23 (4 ng/mL), anti-IL-4 (10 μg/mL), anti-IFN-γ (5 μg/mL) and anti-IL-2 (5 μg/mL)). Cells were incubated with two different variants of B7-H4-Ig (1 μg/mL) identified as Q or L, or a humanized monoclonal IgG antibody directed against an epitope in the A antigenic site of the F protein of the Respiratory Syncytial Virus (Synagis), as an isotype control.

As to “B7-H4-Ig: B7-H4 extracellular domain fused to Ig Fc; bare label is the human protein in Example 3, murine protein in Examples 1, 2, 5, 7-11”, the “anti-CD3 induced T cell activation” value in assay [1] (1:0.12 and 1:0.25 ratios of T cell responder:nTreg, 5 or 10 μg/mL (FIG. 32)) is recorded as “completely blocked anti-CD3 induced T cell activation”. In assay [1] (absence of nTreg cells (ratio 1:0), 0, 1, 5, or 10, anti-CD3 (FIG. 32)), the “CD4+ T cell activation and proliferation” value is “suppressed CD4^+ T cell activation and proliferation in a dose dependent manner”. Further, the overall arthritis scores result in the assay with DBA/1J mice was “significantly lower than the scores for vehicle-injected CIA mice”. Besides, the “expression of mRNA involved in Th17 cell differentiation (RORc, IL-17A, IL-17F, IL-21, IL-22)” value (in assay [2]; with Human T cells) was “downregulates the expression of mRNA involved in Th17 cell differentiation” throughout.

The values above are taken from patent publication US9011853B2, “B7-H4 fusion proteins and methods of use thereof” (Amplimmune, Inc., priority 2009, dated 2015).
